Molecules are shown by their SMILES.

One assay deals with T1, kinase-domain human PKCι (Homo sapiens, UniProt P41743).
T1 construct: Recombinant, kinase-domain human PKCι is expressed and purified in-house; made in house
T1 sequence (P41743 254-522 limits assumed): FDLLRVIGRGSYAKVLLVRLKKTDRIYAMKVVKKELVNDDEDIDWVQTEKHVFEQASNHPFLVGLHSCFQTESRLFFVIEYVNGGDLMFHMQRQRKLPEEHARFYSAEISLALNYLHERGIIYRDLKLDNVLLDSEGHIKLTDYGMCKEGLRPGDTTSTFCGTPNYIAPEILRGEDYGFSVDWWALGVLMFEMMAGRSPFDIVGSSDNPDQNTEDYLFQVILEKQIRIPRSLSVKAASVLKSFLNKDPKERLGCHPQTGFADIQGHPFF
Briefly: PKCι IC50 IMAP fluorescence polarisation assay, kinase-domain enzyme. It is filed as biochemical. The note with it: kinase domain PKCi at 2 μM ATP; read-out: IC50 in IMAP assay against kinase domain PKCi. As for the experimental part:
Assays are based on the ability of PKCι to phosphorylate a commercially available peptide substrate in vitro. […] Recombinant, full-length human PKCι expressed in Sf21 insect cells is also commercially available. Recombinant, kinase-domain human PKCι is expressed and purified in-house.
The procedure below explains how dose response curves for inhibitors of PKCι are obtained.
Compounds to be tested are dissolved in 100% DMSO. […] 1 μl is plated into 384 well black low-binding flat bottomed assay plates which are used immediately. Dilutions and additions of compound to assay plates are carried out using Matrix WellMate® and Matrix PlateMate® Plus liquid handling systems.
The final concentration of peptide substrate in the assay is 100 nM. […] Relevant controls are included, namely no compound and no enzyme. […] The reaction is allowed to incubate for 60 minutes at room temperature, before the reaction is stopped and developed by the addition of 20 μl IMAP™ development reagent (Molecular Devices). IMAP development reagent consists of 0.25% (v/v) IMAP progressive binding reagent, 17% (v/v) IMAP progressive binding buffer A and 3% (v/v) IMAP progressive binding buffer B. The plates are then incubated for 2 hours at room temperature before being read using an appropriate plate reader, for example a Molecular Devices HT Analyst or a BMG Pherastar.
In general terms: In fluorescence polarisation assays a small probe gives low polarisation when free and higher when bound to something large.
As for `Cc1csc2c(N[C@@H]3CCNC3)nc(-c3ccncc3)nc12` [compound 312, (7-Methyl-2-pyridin-4-yl-thieno[3,2-d]pyrimidin-4-yl)-(R)-pyrrolidin-3-yl-amine], the IC50 was in the range of 1000 to 10000 nM. Same read-out and setting: as for `Clc1cccc2sc3c(OC[C@@H]4CCCN4)nc(-c4ccncc4)nc3c12` [compound 479, 9-Chloro-2-pyridin-4-yl-4-((S)-1-pyrrolidin-2-ylmethoxy)-benzo[4,5]thieno[3,2-d]pyrimidine], the figure is 1000 to 10000 nM; as for `C[C@@H](N)CNc1nc(-c2ccncc2)nc2c1sc1cccc(Cl)c12` [compound 374, (R)-N*1*-(9-Chloro-2-pyridin-4-yl-benzo[4,5]thieno[3,2-d]pyrimidin-4-yl)-propane-1,2-diamine], 100 to 1000 nM.

As to `NCCNc1nc(-c2ccncc2)nc2c1sc1cccc(Cl)c12` [compound 386, N*1*-(9-Chloro-2-pyridin-4-yl-benzo[4,5]thieno[3,2-d]pyrimidin-4-yl)-ethane-1,2-diamine], the IC50 was 100 to 1000 nM.

For `Clc1cccc2sc3c(OC[C@H]4CCCN4)nc(-c4ccncc4)nc3c12` [compound 478, 9-Chloro-2-pyridin-4-yl-4-((R)-1-pyrrolidin-2-ylmethoxy)-benzo[4,5]thieno[3,2-d]pyrimidine], the IC50 lay within 10000 to 40000 nM. Still for that read-out and setting: then `CC(C)(C)c1ccc(-c2cc3nc(-c4ccncc4)nc(N4CCCNCC4)c3s2)cc1` [compound 356, 6-(4-tert-butyl-phenyl)-4-[1,4]diazepan-1-yl-2-pyridin-4-yl-thieno[3,2-d]pyrimidine], with 10000 to 40000 nM; and `Cc1cc(C)c2c(n1)sc1c(NC[C@@H](C)N)nc(-c3ccncc3)nc12` [compound 383, (R)-N*1*-(7,9-Dimethyl-2-pyridin-4-yl-pyrido[3′,2′:4,5]thieno[3,2-d]pyrimidin-4-yl)-propane-1,2-diamine], with 1000 to 10000 nM; and `CC(C)(C)c1cc2nc(-c3ccncc3)nc(NCCN)c2s1` [compound 311, N*1*-(6-tert-Butyl-2-pyridin-4-yl-thieno[3,2-d]pyrimidin-4-yl)-ethane-1,2-diamine], with 10000 to 40000 nM. The same measure, in the same setting: as for `c1cnc2sc3c(N4CCNCC4)nc(-c4ccncc4)nc3c2c1` [compound 376, 4-Piperazin-1-yl-2-pyridin-4-yl-pyrido[3′,2′:4,5]thieno[3,2-d]pyrimidine], the figure is 10000 to 40000 nM.

The same assay, now with this note: kinase domain PKCi at 2 μM ATP; read-out: IC50 in IMAP assay against kinase domain PKCi (Activity).
`c1cc(-c2nc(O[C@H]3CCNC3)c3c4c(sc3n2)CCCC4)ccn1` [compound 140, 2-Pyridin-4-yl-4-((S)-pyrrolidin-3-yloxy)-5,6,7,8-tetrahydro-benzo[4,5]thieno[2,3-d]pyrimidine]: the IC50 was 1000 to 10000 nM. Still for that read-out and setting: then `Brc1ccc(-c2csc3nc(-c4ccncc4)nc(N4CCCNCC4)c23)cc1` [compound 93, 5-(4-Bromo-phenyl)-4-[1,4]diazepan-1-yl-2-pyridin-4-yl-thieno[2,3-d]pyrimidine], with 1000 to 10000 nM. The same measure, in the same setting: as for `CNCCNc1nc(-c2ccncc2)nc2sc3c(c12)CCCC3` [compound 13, N-Methyl-N′-(2-pyridin-4-yl-5,6,7,8-tetrahydro-benzo[4,5]thieno[2,3-d]pyrimidin-4-yl)-ethane-1,2-diamine], the figure is 100 to 1000 nM; as for `CC(C)C[C@@H](N)COc1nc(-c2ccncc2)nc2sc3c(c12)CCCC3` [compound 146, (R)-3-Methyl-1-(2-pyridin-4-yl-5,6,7,8-tetrahydro-benzo[4,5]thieno[2,3-d]pyrimidin-4-yloxymethyl)-butylamine], 1000 to 10000 nM; as for `c1cc(-c2nc(OC[C@H]3CCCCN3)c3c4c(sc3n2)CCCC4)ccn1` [compound 178, 4-((R)-1-Piperidin-2-ylmethoxy)-2-pyridin-4-yl-5,6,7,8-tetrahydro-benzo[4,5]thieno[2,3-d]pyrimidine], 1000 to 10000 nM.

Turning to `N[C@H](COc1nc(-c2ccncc2)nc2sc3c(c12)CCCC3)Cc1cccc2ccccc12` [compound 161, (S)-1-Naphthalen-1-ylmethyl-2-(2-pyridin-4-yl-5,6,7,8-tetrahydro-benzo[4,5]thieno[2,3-d]pyrimidin-4-yloxy)-ethylamine], the IC50 is 1000 to 10000 nM. Still for that read-out and setting: then `Clc1ccc(CN2CCN(c3nc(-c4ccncc4)nc4sc5c(c34)CCCC5)CC2)cc1` [compound 122, 4-[4-(4-Chloro-benzyl)-piperazin-1-yl]-2-pyridin-4-yl-5,6,7,8-tetrahydro-benzo[4,5]thieno[2,3-d]pyrimidine], with 10000 to 40000 nM. As for `NCCNc1nc(-c2ccncc2)nc2sc3c(c12)CCCCCC3` [compound 24, N*1*-(2-Pyridin-4-yl-5,6,7,8,9,10-hexahydro-11-thia-1,3-diaza-cycloocta[a]inden-4-yl)-ethane-1,2-diamine], the IC50 fell in the range of 100 to 1000 nM.

Take `c1ccc(CCN2CCN(c3nc(-c4ccncc4)nc4sc5c(c34)CCCC5)CC2)cc1` [compound 132, 4-(4-Phenethyl-piperazin-1-yl)-2-pyridin-4-yl-5,6,7,8-tetrahydro-benzo[4,5]thieno[2,3-d]pyrimidine]: the half-inhibitory concentration (IC50) fell in the range of 10000 to 40000 nM. Same read-out and setting: as for `CNCCOc1nc(-c2ccncc2)nc2sc3c(c12)CCCC3` [compound 137, Methyl-[2-(2-pyridin-4-yl-5,6,7,8-tetrahydro-benzo[4,5]thieno[2,3-d]pyrimidin-4-yloxy)-ethyl]-amine], the figure is 1000 to 10000 nM. Same read-out and setting: then `C[C@@H](N)CNc1nc(-c2ccncc2)nc2sc3c(c12)CCCCC3` [compound 89, (R)-N*1*-(2-Pyridin-4-yl-6,7,8,9-tetrahydro-5H-10-thia-1,3-diaza-benzo[a]azulen-4-yl)-propane-1,2-diamine], with 100 to 1000 nM; and `CCCN1CCN(c2nc(-c3ccncc3)nc3sc4c(c23)CCCC4)CC1` [compound 133, 4-(4-Propyl-piperazin-1-yl)-2-pyridin-4-yl-5,6,7,8-tetrahydro-benzo[4,5]thieno[2,3-d]pyrimidine], with 10000 to 40000 nM.

In the case of `Cc1sc2nc(-c3ccncc3)nc(NCCN)c2c1-c1ccccc1` [compound 91, N*1*-(6-Methyl-5-phenyl-2-pyridin-4-yl-thieno[2,3-d]pyrimidin-4-yl)-ethane-1,2-diamine], the IC50 was 1000 to 10000 nM.

`N[C@H](COc1nc(-c2ccncc2)nc2sc3c(c12)CCCC3)Cc1ccccc1` [compound 143, (S)-2-Phenyl-1-(2-pyridin-4-yl-5,6,7,8-tetrahydro-benzo[4,5]thieno[2,3-d]pyrimidin-4-yloxymethyl)-ethylamine]: the IC50 lay in the range of 100 to 1000 nM. On the same count and under the same terms, then `Cc1csc2nc(-c3ccncc3)nc(N3CCNCC3)c12` [compound 94, 5-Methyl-4-piperazin-1-yl-2-pyridin-4-yl-thieno[2,3-d]pyrimidine], with less than 100 nM.

As to `Cc1n[nH]c(C)c1-c1nc(NC[C@@H](N)Cc2ccccc2)c2c3c(sc2n1)CCCC3` [compound 184, (S)-N*1*-[2-(3,5-Dimethyl-1H-pyrazol-4-yl)-5,6,7,8-tetrahydro-benzo[4,5]thieno[2,3-d]pyrimidin-4-yl]-3-phenyl-propane-1,2-diamine], the IC50 was in the range of 1000 to 10000 nM. As for `CC(C)Cc1csc2nc(-c3ccncc3)nc(NC[C@H](C)N)c12` [compound 29, (S)-N*1*-(5-Isobutyl-2-pyridin-4-yl-thieno[2,3-d]pyrimidin-4-yl)-propane-1,2-diamine], the IC50 lay in the range of 100 to 1000 nM.

As to `C[C@H](N)CNc1nc(-c2ccncc2)nc2sc3c(c12)CCCC3` [compound 5, (S)-N*1*-(2-Pyridin-4-yl-5,6,7,8-tetrahydro-benzo[4,5]thieno[2,3-d]pyrimidin-4-yl)-propane-1,2-diamine], the IC50 was less than 100 nM. Same read-out and setting: as for `CCc1c(C)sc2nc(-c3ccncc3)nc(NC[C@H](C)N)c12` [compound 31, (S)-N*1*-(5-Ethyl-6-methyl-2-pyridin-4-yl-thieno[2,3-d]pyrimidin-4-yl)-propane-1,2-diamine], the figure is 1000 to 10000 nM; as for `CC(C)c1cc2c(NC[C@@H](C)N)nc(-c3ccncc3)nc2s1` [compound 41, (R)-N*1*-(6-Isopropyl-2-pyridin-4-yl-thieno[2,3-d]pyrimidin-4-yl)-propane-1,2-diamine], 10000 to 40000 nM; as for `c1cc(CN2CCN(c3nc(-c4ccncc4)nc4sc5c(c34)CCCC5)CC2)ccn1` [compound 118, 2-Pyridin-4-yl-4-(4-pyridin-4-ylmethyl-piperazin-1-yl)-5,6,7,8-tetrahydro-benzo[4,5]thieno[2,3-d]pyrimidine], 1000 to 10000 nM. The same measure, in the same setting: as for `N[C@H](COc1nc(-c2ccncc2)nc2sc3c(c12)CCCC3)Cc1ccc(Br)cc1` [compound 171, (S)-1-(4-Bromo-benzyl)-2-(2-pyridin-4-yl-5,6,7,8-tetrahydro-benzo[4,5]thieno[2,3-d]pyrimidin-4-yloxy)-ethylamine], the figure is 1000 to 10000 nM; as for `N[C@H](CNc1nc(-c2ccncc2)nc2sc3c(c12)CCCCC3)Cc1ccccc1` [compound 87, (S)-3-Phenyl-N*1*-(2-pyridin-4-yl-6,7,8,9-tetrahydro-5H-10-thia-1,3-diaza-benzo[a]azulen-4-yl)-propane-1,2-diamine], 100 to 1000 nM.

The IC50 is the concentration that inhibits the measured activity by half.

The values are drawn from US10183950B2, “Thienopyrimidine inhibitors of atypical protein kinase C” (Cancer Research Technology Limited, priority 2011, dated 2019).
